Assay results published in ChEMBL document CHEMBL1821574, “Structure-activity relationships of 4-position diamine quinoline methanols as intermittent preventative treatment (IPT) against Plasmodium falciparum” (J Med Chem, 2011).
Converted amounts (≈) assume the structure as drawn.

Key:
Plasmodium falciparum [1] = assay: Antimalarial activity against chloroquine-resistant and mefloquine-sensitive Plasmodium falciparum W2 assessed as inhibition of [3H]hypoxanthine incorporation by liquid scintillation spectrometry; format: functional
Plasmodium falciparum [2] = assay: Antimalarial activity against chloroquine-sensitive and mefloquine-resistant Plasmodium falciparum D6 assessed as inhibition of [3H]hypoxanthine incorporation by liquid scintillation spectrometry; format: functional
Plasmodium falciparum [3] = assay: Antimalarial activity against chloroquine, mefloquine and pyrimethamine-resistant Plasmodium falciparum TM91C235 assessed as inhibition of [3H]hypoxanthine incorporation by liquid scintillation spectrometry; format: functional
Plasmodium falciparum [4] = assay: Antimalarial activity against chloroquine, mefloquine and pyrimethamine-resistant Plasmodium falciparum TM90C2A assessed as inhibition of [3H]hypoxanthine incorporation by liquid scintillation spectrometry; format: functional
Plasmodium falciparum [5] = assay: Antimalarial activity against chloroquine-sensitive and mefloquine-resistant Plasmodium falciparum D6 by SYBR Green I-based fluorescence assay; format: functional
Plasmodium falciparum [6] = assay: Antimalarial activity against chloroquine, mefloquine and pyrimethamine-resistant Plasmodium falciparum TM91C235 by SYBR Green I-based fluorescence assay; format: functional
[7] = Apparent permeability from apical to basolateral side of dog MDCK cells at 5 uM after 2 hrs by LC/MS/MS analysis; format: ADME, cell-based, Canis lupus familiaris
Plasmodium falciparum [8] = assay: Antimalarial activity against chloroquine-resistant and mefloquine-sensitive Plasmodium falciparum W2; format: functional
Plasmodium falciparum [9] = assay: Antimalarial activity against mefloquine-resistant and chloroquine-sensitive Plasmodium falciparum D6; format: functional
Plasmodium falciparum [10] = assay: Antimalarial activity against chloroquine, mefloquine and pyrimethamine-resistant Plasmodium falciparum TM91C235; format: functional
Plasmodium falciparum [11] = assay: Antimalarial activity against chloroquine, mefloquine and pyrimethamine-resistant Plasmodium falciparum TM90C2A; format: functional

| Compound | IC90 (Plasmodium falciparum [1]) | IC90 (Plasmodium falciparum [2]) | IC90 (Plasmodium falciparum [3]) | IC90 (Plasmodium falciparum [4]) | IC90 (Plasmodium falciparum [5]) | IC90 (Plasmodium falciparum [6]) | Papp A→B at 2 h, 5 µM [7] | IC90 (Plasmodium falciparum [8]) | IC90 (Plasmodium falciparum [9]) | IC90 (Plasmodium falciparum [10]) | IC90 (Plasmodium falciparum [11]) |
| --- | --- | --- | --- | --- | --- | --- | --- | --- | --- | --- | --- |
| CN(CCNCC(O)c1cc(C(F)(F)F)nc2c(C(F)(F)F)cccc12)C1CCCC1 (stereo unspecified) | 0.011 µg/mL (≈ 0.0245 µM) | 0.048 µg/mL (≈ 0.107 µM) | 0.106 µg/mL (≈ 0.236 µM) | 0.112 µg/mL (≈ 0.249 µM) | 0.035 µg/mL (≈ 0.0779 µM) | 0.109 µg/mL (≈ 0.243 µM) | 17 ×10⁻⁶ cm/s |  |  |  |  |
| CC(C)N(CCN)CC(O)c1cc(C(F)(F)F)nc2c(C(F)(F)F)cccc12 (stereo unspecified) |  |  |  |  | 0.439 µg/mL (≈ 1.07 µM) | 0.627 µg/mL (≈ 1.53 µM) |  |  |  |  |  |
| CC(CCN1CCOCC1)NCC(O)c1cc(C(F)(F)F)nc2c(C(F)(F)F)cccc12 (stereo unspecified) | 0.011 µg/mL (≈ 0.0236 µM) | 0.036 µg/mL (≈ 0.0773 µM) | 0.055 µg/mL (≈ 0.118 µM) | 0.095 µg/mL (≈ 0.204 µM) |  |  |  |  |  |  |  |
| O[C@@H](CNCCNC1CC1)c1cc(C(F)(F)F)nc2c(C(F)(F)F)cccc12 |  |  |  |  |  |  |  | 0.011 µg/mL (≈ 0.027 µM) | 0.037 µg/mL (≈ 0.0908 µM) | 0.103 µg/mL (≈ 0.253 µM) | 0.075 µg/mL (≈ 0.184 µM) |
| OC(CNC[C@@]12CCC[C@@H]1CNC2)c1cc(C(F)(F)F)nc2c(C(F)(F)F)cccc12 (stereo partly specified) | 0.885 µg/mL (≈ 1.98 µM) | 0.165 µg/mL (≈ 0.369 µM) | 0.433 µg/mL (≈ 0.968 µM) | 0.358 µg/mL (≈ 0.8 µM) |  |  |  |  |  |  |  |
| OC(CNCCN1CC2CCC1C2)c1cc(C(F)(F)F)nc2c(C(F)(F)F)cccc12 (stereo unspecified) |  |  |  |  | 0.844 µg/mL (≈ 1.89 µM) | 0.972 µg/mL (≈ 2.17 µM) | 14.2 ×10⁻⁶ cm/s |  |  |  |  |
| OC(CNCCN1CCCC1)c1cc(C(F)(F)F)nc2c(C(F)(F)F)cccc12 (stereo unspecified) | 0.109 µg/mL (≈ 0.259 µM) | 0.311 µg/mL (≈ 0.738 µM) | 0.556 µg/mL (≈ 1.32 µM) | 0.835 µg/mL (≈ 1.98 µM) |  |  |  |  |  |  |  |
| OC(CNCCNCc1ccncc1)c1cc(C(F)(F)F)nc2c(C(F)(F)F)cccc12 (stereo unspecified) | 0.47 µg/mL (≈ 1.03 µM) | 0.38 µg/mL (≈ 0.829 µM) | > 0.5 µg/mL | > 0.5 µg/mL | 0.38 µg/mL (≈ 0.829 µM) | > 0.5 µg/mL |  |  |  |  |  |
| CC1CCN(CC(C)(C)NCC(O)c2cc(C(F)(F)F)nc3c(C(F)(F)F)cccc23)CC1 (stereo unspecified) | 0.007 µg/mL (≈ 0.0147 µM) | 0.024 µg/mL (≈ 0.0503 µM) | 0.061 µg/mL (≈ 0.128 µM) | 0.066 µg/mL (≈ 0.138 µM) | 0.017 µg/mL (≈ 0.0356 µM) | 0.034 µg/mL (≈ 0.0712 µM) | 44.2 ×10⁻⁶ cm/s |  |  |  |  |
| CC(CN1CC2CCC1C2)NCC(O)c1cc(C(F)(F)F)nc2c(C(F)(F)F)cccc12 (stereo unspecified) |  |  |  |  | 0.029 µg/mL (≈ 0.0628 µM) | 0.051 µg/mL (≈ 0.111 µM) | 18.8 ×10⁻⁶ cm/s |  |  |  |  |
| CC(C)N(C)CCNCC(O)c1cc(C(F)(F)F)nc2c(C(F)(F)F)cccc12 (stereo unspecified) |  |  |  |  | 0.044 µg/mL (≈ 0.104 µM) | 0.079 µg/mL (≈ 0.187 µM) | 9.03 ×10⁻⁶ cm/s |  |  |  |  |
| OC(CNCCNC1CC1)c1cc(C(F)(F)F)nc2c(C(F)(F)F)cccc12 (stereo unspecified) |  |  |  |  | 0.041 µg/mL (≈ 0.101 µM) | 0.128 µg/mL (≈ 0.314 µM) | 2.8 ×10⁻⁶ cm/s |  |  |  |  |
| CNCCNCC(O)c1cc(C(F)(F)F)nc2c(C(F)(F)F)cccc12 (stereo unspecified) | 0.481 µg/mL (≈ 1.26 µM) | > 0.5 µg/mL | > 0.5 µg/mL | > 0.5 µg/mL |  |  |  |  |  |  |  |
| Cc1ccc(S(=O)(=O)N(CCN2CCCCC2)CC(O)c2cc(C(F)(F)F)nc3c(C(F)(F)F)cccc23)cc1 (stereo unspecified) |  |  |  |  | 0.071 µg/mL (≈ 0.12 µM) | 0.214 µg/mL (≈ 0.363 µM) | 2.5 ×10⁻⁶ cm/s |  |  |  |  |
| CN(C)CCNCC(O)c1cc(C(F)(F)F)nc2c(C(F)(F)F)cccc12 (stereo unspecified) | > 0.5 µg/mL | > 0.5 µg/mL | > 0.5 µg/mL | > 0.5 µg/mL |  |  |  |  |  |  |  |
| CNCCN(CC(O)c1cc(C(F)(F)F)nc2c(C(F)(F)F)cccc12)CC(O)c1cc(C(F)(F)F)nc2c(C(F)(F)F)cccc12 (stereo unspecified) |  |  |  |  | 0.022 µg/mL (≈ 0.032 µM) | 0.03 µg/mL (≈ 0.0436 µM) | 0.3 ×10⁻⁶ cm/s |  |  |  |  |
| OC(NC[C@]12CC[C@@H](C1)NC2)c1cc(C(F)(F)F)nc2c(C(F)(F)F)cccc12 (stereo partly specified) | 0.275 µg/mL (≈ 0.656 µM) | 0.075 µg/mL (≈ 0.179 µM) | 0.26 µg/mL (≈ 0.62 µM) |  |  |  |  |  |  |  |  |
| CC1CC(C)CN(CCNCC(O)c2cc(C(F)(F)F)nc3c(C(F)(F)F)cccc23)C1 (stereo unspecified) | < 0.001 µg/mL | 0.005 µg/mL (≈ 0.0108 µM) | 0.01 µg/mL (≈ 0.0216 µM) | 0.011 µg/mL (≈ 0.0237 µM) | 0.01 µg/mL (≈ 0.0216 µM) | 0.056 µg/mL (≈ 0.121 µM) | 32.7 ×10⁻⁶ cm/s |  |  |  |  |
| OC(CNC[C@]12CC[C@H](C1)NC2)c1cc(C(F)(F)F)nc2c(C(F)(F)F)cccc12 (stereo partly specified) | 0.57 µg/mL (≈ 1.32 µM) | > 0.5 µg/mL | > 0.5 µg/mL | > 0.5 µg/mL |  |  |  |  |  |  |  |
| CNCCN(C)CC(O)c1cc(C(F)(F)F)nc2c(C(F)(F)F)cccc12 (stereo unspecified) |  |  |  |  | 0.432 µg/mL (≈ 1.09 µM) | 0.755 µg/mL (≈ 1.91 µM) | 5.66 ×10⁻⁶ cm/s |  |  |  |  |
| OC(CNCCNCc1ccccc1)c1cc(C(F)(F)F)nc2c(C(F)(F)F)cccc12 (stereo unspecified) | 0.006 µg/mL (≈ 0.0131 µM) | 0.025 µg/mL (≈ 0.0547 µM) |  |  | 0.029 µg/mL (≈ 0.0634 µM) | 0.04 µg/mL (≈ 0.0874 µM) | 8.5 ×10⁻⁶ cm/s |  |  |  |  |
| CN(C)CC(C)(C)NCC(O)c1cc(C(F)(F)F)nc2c(C(F)(F)F)cccc12 (stereo unspecified) | 0.03 µg/mL (≈ 0.0709 µM) | 0.098 µg/mL (≈ 0.231 µM) | 0.142 µg/mL (≈ 0.335 µM) | 0.165 µg/mL (≈ 0.39 µM) |  |  |  |  |  |  |  |
| OC(CNCCNc1ccccc1)c1cc(C(F)(F)F)nc2c(C(F)(F)F)cccc12 (stereo unspecified) |  |  |  |  | 0.028 µg/mL (≈ 0.0631 µM) | 0.07 µg/mL (≈ 0.158 µM) | 13 ×10⁻⁶ cm/s |  |  |  |  |
| NCCNCC(O)c1cc(C(F)(F)F)nc2c(C(F)(F)F)cccc12 (stereo unspecified) |  |  |  |  | 0.988 µg/mL (≈ 2.69 µM) | 1.14 µg/mL (≈ 3.11 µM) | 3.1 ×10⁻⁶ cm/s |  |  |  |  |
